Common to all, as to assay type: functional
For test [1], the system named is Periplaneta americana. Description: Insecticidal activity against adult male Periplaneta americana (American cockroach) dosed through injection into abdomen assessed as mortality measured 24 hr post dose.
In test [2] the test system is Periplaneta americana. Description: Insecticidal activity against adult male Periplaneta americana (American cockroach) dosed through injection into abdomen assessed as mortality measured 24 hr post dose pre-treated with 50 ug metabolic inhibitor PB and 50 ug NIA 1 hr before compound injection.
Test [3] relates to Abdominal central nerve cord. Nature of the test: Neuroblocking activity in adult male Periplaneta americana (American cockroach) abdominal central nerve cords containing fifth and sixth ganglia assessed as neuroblocking concentration to supress frequncy below 10 counts/30 sec measured at 22 to 25 degC.

Bounds are passed on as bounds.

MLD and BC data for 7 compounds are collected here from ChEMBL document CHEMBL3046820, “1,6-Bis[1-(2-chloro-5-thiazolylmethyl)-2-nitroiminoimidazolidin-3-yl]hexane and 1,3,5-tris[1-(6-chloronicotinyl)-2-nitroiminoimidazolidin-3-ylmethyl]benzeneSynthesis and insecticidal and neuroblocking activities in American cockroaches, Periplaneta americana” (2006).

With `O=[N+]([O-])/N=C1/N(CCCCCCN2CCN(Cc3cnc(Cl)s3)/C2=N/[N+](=O)[O-])CCN1Cc1cnc(Cl)s1`, the results for the MLD in test [1] and in test [2] were 8.9 nmol and 1.1 nmol, respectively.
For `O=[N+]([O-])/N=C(/NCCCCCCN/C(=N\[N+](=O)[O-])NCc1ccc(Cl)nc1)NCc1ccc(Cl)nc1`, the BC in test [3] came to 26.3 µM. For the same compound, the MLD in test [1] was >129 nmol; in test [2] it was 25.7 nmol.
In the case of `O=[N+]([O-])/N=C(/NCCCCCCN/C(=N\[N+](=O)[O-])NCc1cnc(Cl)s1)NCc1cnc(Cl)s1`, the BC in test [3] was found to be 14.8 µM. The MLD in test [1] is reported as >134 nmol; in test [2], 85.1 nmol.
For `O=[N+]([O-])/N=C1\N(Cc2ccc(Cl)nc2)CCN1Cc1cccc(CN2CCN(Cc3ccc(Cl)nc3)/C2=N/[N+](=O)[O-])c1CN1CCN(Cc2ccc(Cl)nc2)/C1=N\[N+](=O)[O-]` the same measures were 100 µM, 34 nmol and 3.4 nmol.
Take `O=[N+]([O-])/N=C1\N(Cc2ccc(Cl)nc2)CCN1Cc1cccc(CN2CCN(Cc3ccc(Cl)nc3)/C2=N/[N+](=O)[O-])c1`: the MLD was 20 nmol in test [1] and 1 nmol in test [2].
Take `O=[N+]([O-])/N=C1/N(CCCCCCN2CCN(Cc3ccc(Cl)nc3)/C2=N/[N+](=O)[O-])CCN1Cc1ccc(Cl)nc1` [Hexamethylene 1,6-bis-imadacloprid]: in test [3], the BC was 3.7 µM. Besides, the MLD in test [1] was found to be 2.2 nmol; in test [2], 0.29 nmol.
As for `O=[N+]([O-])/N=C1\NCCN1Cc1ccc(Cl)nc1` [IMIDACLOPRID], in test [3], the BC stood at 2.3 µM. Further, the figures for the MLD in test [1] and in test [2] were 1.1 nmol and 0.071 nmol, respectively.
